From US8263606B2 (Xenon Pharmaceuticals Inc., priority 2008, dated 2012)

Assays:
[1] = biological target: CYP3A4 (Homo sapiens, UniProt P08684); assay: Cytochrome P450 (CYP450) Inhibition Assay, CYP3A4 (Vivid fluorescence, BOMCC substrate); conditions: for inhibition at 10 µM: human, P450 Baculosomes (recombinant CYP3A4), probe BOMCC (Vivid substrate)
CYP3A4, sequence (P08684 whole entry): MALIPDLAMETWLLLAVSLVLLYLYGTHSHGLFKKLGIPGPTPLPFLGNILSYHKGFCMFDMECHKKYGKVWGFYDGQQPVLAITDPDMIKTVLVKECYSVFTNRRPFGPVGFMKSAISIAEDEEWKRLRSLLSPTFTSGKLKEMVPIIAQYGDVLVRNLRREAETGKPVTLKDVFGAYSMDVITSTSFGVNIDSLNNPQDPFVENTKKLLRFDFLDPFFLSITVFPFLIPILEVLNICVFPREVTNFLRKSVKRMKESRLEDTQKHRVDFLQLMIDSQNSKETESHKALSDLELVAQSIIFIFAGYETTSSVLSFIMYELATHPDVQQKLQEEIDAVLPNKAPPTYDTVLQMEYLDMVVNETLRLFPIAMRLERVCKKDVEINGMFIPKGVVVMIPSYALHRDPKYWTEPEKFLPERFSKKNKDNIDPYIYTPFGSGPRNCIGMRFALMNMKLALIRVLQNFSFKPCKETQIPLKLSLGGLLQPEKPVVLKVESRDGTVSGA

| SMILES | melting point [°C] | inhibition at 10 µM [1] [%] | % Inhibition of CYP3A4 ([1]; CYP3A4 isozyme, at 10 μM) |
| --- | --- | --- | --- |
| CN1C(=O)C2(COc3cc4c(cc32)OCCO4)c2c(NC(=O)C3CC3)cccc21 (stereo not shown) [Example 16.26, N-(1′-methyl-2′-oxo-1′,2,2′,3-tetrahydrospiro[furo[2,3-g][1,4]benzodioxine-8,3′-indol]-4′-yl)cyclopropanecarboxamide] | 266 to 268 | < 50 | – |
| CN1C(=O)[C@@]2(COc3cc4c(cc32)OCO4)c2c(Br)cccc21 [Example 16.63, (7R)-4′-bromo-1′-methylspiro[furo[2,3-f][1,3]benzodioxole-7,3′-indol]-2′(1′H)-one] | 226 to 228 | > 50 | – |
| CCCCCCC(=O)Nc1cccc2c1C1(COc3cc4c(cc31)OCCO4)C(=O)N2C (stereo not shown) [Example 16.33, N-(1′-methyl-2′-oxo-1′,2,2′,3-tetrahydrospiro[furo[2,3-g][1,4]benzodioxine-8,3′-indol]-4′-yl)heptanamide] | 123 to 124 | > 50 | – |
| Cl.O=C1N(Cc2ccccn2)c2ccccc2C12COc1cc3c(cc12)OCCO3 (stereo not shown) [Example 4.42, 1′-(pyridin-2-ylmethyl)-2,3-dihydrospiro[furo[2,3-g][1,4]benzodioxine-8,3′-indol]-2′(1′H)-one hydrochloride] | 206 to 208 | – | A (percent inhibition of less than 50% at 10 μM) |
| CN1C(=O)C2(COc3cc4c(cc32)OCCO4)c2c(C(=O)Nc3ccc(F)cc3)cccc21 (stereo not shown) [Example 16.47, N-(4-fluorophenyl)-1′-methyl-2′-oxo-1′,2,2′,3-tetrahydrospiro[furo[2,3-g][1,4]benzodioxine-8,3′-indole]-4′-carboxamide] | > 250 | < 50 | – |
| CN1C(=O)C2(COc3cc4c(cc32)OCCO4)c2c(C(=O)Oc3ccccc3)cccc21 (stereo not shown) [Example 2.53, phenyl 1′-methyl-2′-oxo-1′,2,2′,3-tetrahydrospiro[furo[2,3-g][1,4]benzodioxine-8,3′-indole]-4′-carboxylate] | 184 to 186 | > 50 | – |
| CN1C(=O)C2(COc3cc4c(cc32)OCCO4)c2c(C(=O)NCc3ccccn3)cccc21 (stereo not shown) [Example 16.46, 1′-methyl-2′-oxo-N-(pyridin-2-ylmethyl)-1′,2,2′,3-tetrahydrospiro[furo[2,3-g][1,4]benzodioxine-8,3′-indole]-4′-carboxamide] | 214 to 215 | < 50 | – |
| CCCCCCNC(=O)c1cccc2c1C1(COc3cc4c(cc31)OCCO4)C(=O)N2C (stereo not shown) [Example 16.45, N-hexyl-1′-methyl-2′-oxo-1′,2,2′,3-tetrahydrospiro[furo[2,3-g][1,4]benzodioxine-8,3′-indole]-4′-carboxamide] | 172 to 173 | > 50 | – |
| O=C1N(Cc2cc3ccccc3o2)c2ccccc2C12COc1cc3c(cc12)OCO3 (stereo not shown) [Example 1.8, 1′-(1-benzofuran-2-ylmethyl)spiro[furo[2,3-f][1,3]-benzodioxole-7,3′-indol]-2′(1′H)-one] | 167 to 168 | > 50 | – |
| COCC(=O)Nc1cccc2c1C1(COc3cc4c(cc31)OCCO4)C(=O)N2C (stereo not shown) [Example 16.28, 2-methoxy-N-(1′-methyl-2′-oxo-1′,2,2′,3-tetrahydrospiro[furo[2,3-g][1,4]benzodioxine-8,3′-indol]-4′-yl)acetamide] | 237 to 239 | < 50 | – |
| CN1C(=O)C2(COc3cc4c(cc32)OCCO4)c2c(NC(=O)C3CCCCC3)cccc21 (stereo not shown) [Example 16.23, N-(1′-methyl-2′-oxo-1′,2,2′,3-tetrahydrospiro[furo[2,3-g][1,4]benzodioxine-8,3′-indol]-4′-yl)cyclohexanecarboxamide] | 96 to 98 | < 50 | – |
| O=C1N(Cc2cnccc2C(F)(F)F)c2ccccc2C12COc1cc3c(cc12)OCCO3 (stereo not shown) [Example 5.12, 1′-{[4-(trifluoromethyl)pyridin-3-yl]methyl}-2,3-dihydrospiro[furo[2,3-g][1,4]benzodioxine-8,3′-indol]-2′(1′H)-one] | 131 to 132 | > 50 | – |
| COCCOCCOc1cccc2c1C1(COc3cc4c(cc31)OCCO4)C(=O)N2C (stereo not shown) [Example 16.54, 4′-[2-(2-methoxyethoxy)ethoxy]-1′-methyl-2,3-dihydrospiro[furo[2,3-g][1,4]benzodioxine-8,3′-indol]-2′(1′H)-one] | 109 to 110 | < 50 | – |
| COCCNC(=O)c1cccc2c1C1(COc3cc4c(cc31)OCCO4)C(=O)N2C (stereo not shown) [Example 16.43, N-(2-methoxyethyl)-1′-methyl-2′-oxo-1′,2,2′,3-tetrahydrospiro[furo[2,3-g][1,4]benzodioxine-8,3′-indole]-4′-carboxamide] | 97 to 100 | < 50 | – |
| Cc1nc(-c2cccc3c2C2(COc4cc5c(cc42)OCCO5)C(=O)N3C)cs1 (stereo not shown) [Example 25, 1′-methyl-4′-(2-methyl-1,3-thiazol-4-yl)-2,3-dihydrospiro[furo[2,3-g][1,4]benzodioxine-8,3′-indol]-2′(1′H)-one] | 219 to 220 | > 50 | – |
| CN1C(=O)C2(COc3cc4c(cc32)OCCO4)c2c(N)cccc21 (stereo not shown) [Example 16.19, 4′-amino-1′-methyl-2,3-dihydrospiro[furo[2,3-g][1,4]benzodioxine-8,3′-indol]-2′(1′H)-one] | 252 to 254 | < 50 | – |
| CN1C(=O)C2(COc3cc4c(cc32)OCCO4)c2c(NC(=O)C3CCCC3)cccc21 (stereo not shown) [Example 16.24, N-(1′-methyl-2′-oxo-1′,2,2′,3-tetrahydrospiro[furo[2,3-g][1,4]benzodioxine-8,3′-indol]-4′-yl)cyclopentanecarboxamide] | 196 to 198 | < 50 | – |
| CN1C(=O)C2(COc3cc4c(cc32)OCCO4)c2c(Oc3ccc(F)cc3)cccc21 (stereo not shown) [Example 16.87, 4′-(4-fluorophenoxy)-1′-methyl-2,3-dihydrospiro[furo[2,3-g][1,4]benzodioxine-8,3′-indol]-2′(1′H)-one] | 151 to 153 | > 50 | – |
| Nc1cccc2c1C1(COc3cc4c(cc31)OCCO4)C(=O)N2Cc1ncccc1C(F)(F)F (stereo not shown) [Example 16.50, 4′-amino-1′-{[3-(trifluoromethyl)pyridin-2-yl]methyl}-2,3-dihydrospiro[furo[2,3-g][1,4]benzodioxine-8,3′-indol]-2′(1′H)-one] | 243 to 245 | < 50 | – |
| CN1C(=O)C2(COc3cc4c(cc32)OCCO4)c2c(O)cccc21 (stereo not shown) [Example 16.52, 4′-hydroxy-1′-methyl-2,3-dihydrospiro[furo[2,3-g][1,4]benzodioxine-8,3′-indol]-2′(1′H)-one] | > 250 | < 50 | – |
| CN1C(=O)C2(COc3cc4c(cc32)OCCO4)c2c(-c3cnn(C)c3)cccc21 (stereo not shown) [Example 16.70, 1′-methyl-4′-(1-methyl-1H-pyrazol-4-yl)-2,3-dihydrospiro[furo[2,3-g][1,4]benzodioxine-8,3′-indol]-2′(1′H)-one] | 220 to 222 | < 50 | – |
| CN1C(=O)C2(COc3cc4c(cc32)OCCO4)c2c(-c3cc[nH]n3)cccc21 (stereo not shown) [Example 16.67, 1′-methyl-4′-(1H-pyrazol-3-yl)-2,3-dihydrospiro[furo[2,3-g][1,4]benzodioxine-8,3′-indol]-2′(1′H)-one] | 201 to 202 | > 50 | – |
| O=C1N(C[C@H]2COCCO2)c2ccccc2C12COc1cc3c(cc12)OCCCO3 (stereo partly drawn) [Example 8.13, 1′-[(2S)-1,4-dioxan-2-ylmethyl]-3,4-dihydro-2H-spiro[furo[2,3-h][1,5]benzodioxepine-9,3′-indol]-2′(1′H)-one] | 137 to 139 | < 50 | – |
| CN1C(=O)C2(COc3cc4c(cc32)OCCO4)c2c(C(=O)NC3CCCCC3)cccc21 (stereo not shown) [Example 16.38, N-cyclohexyl-1′-methyl-2′-oxo-1′,2,2′,3-tetrahydrospiro[furo[2,3-g][1,4]benzodioxine-8,3′-indole]-4′-carboxamide] | 139 to 140 | < 50 | – |
| CN1C(=O)C2(COc3cc4c(cc32)OCCO4)c2c(Oc3ncccc3C(F)(F)F)cccc21 (stereo not shown) [Example 16.55, 1′-methyl-4′-{[3-(trifluoromethyl)pyridin-2-yl]oxy}-2,3-dihydrospiro[furo[2,3-g][1,4]benzodioxine-8,3′-indol]-2′(1′H)-one] | > 250 | > 50 | – |
| CN1C(=O)C2(COc3cc4c(cc32)OCCO4)c2c(-c3cn[nH]c3)cccc21 (stereo not shown) [Example 16.69, 1′-methyl-4′-(1H-pyrazol-4-yl)-2,3-dihydrospiro[furo[2,3-g][1,4]benzodioxine-8,3′-indol]-2′(1′H)-one] | 250 to 251 | < 50 | – |
| O=C1N(Cc2nccnc2C(F)(F)F)c2ccccc2C12COc1cc3c(cc12)OCCO3 (stereo not shown) [Example 5.11, 1′-{[3-(trifluoromethyl)pyrazin-2-yl]methyl}-2,3-dihydrospiro[furo[2,3-g][1,4]benzodioxine-8,3′-indol]-2′(1′H)-one] | 230 to 232 | < 50 | – |
| CCCCCNC(=O)c1cccc2c1C1(COc3cc4c(cc31)OCCO4)C(=O)N2C (stereo not shown) [Example 16.42, 1′-methyl-2′-oxo-N-pentyl-1′,2,2′,3-tetrahydrospiro[furo[2,3-g][1,4]benzodioxine-8,3′-indole]-4′-carboxamide] | 191 to 193 | < 50 | – |
| CN1C(=O)C2(COc3cc4c(cc32)OCCO4)c2c(OCc3ncccc3C(F)(F)F)cccc21 (stereo not shown) [Example 16.58, 1′-methyl-4′-{[3-(trifluoromethyl)pyridin-2-yl]methoxy}-2,3-dihydrospiro[furo[2,3-g][1,4]benzodioxine-8,3′-indol]-2′(1′H)-one] | 157 to 159 | > 50 | – |
